What was measured:
[1] = DPPH radical scavenging assay; details: mean ± SD (n = 3); NA: no activity
Method: S1.4. DPPH radical scavenging assay
The DPPH radical scavenging assay was used to evaluate the antioxidant activity of compounds 1-11. In a 96-well microplate, 100 µL of DPPH solution (200 µM in ethanol) was added to 100 µL sample in ethanol at graded concentrations ranging from 7 to 500 µM. The mixture was incubated in the dark at room temperature for 30 min. The absorbance of the reaction mixture was measured at 517 nm using a microplate reader. The DPPH scavenging activity was calculated by the following formula: DPPH scavenging activity (%) = (Acontrol- Asample)/Acontrol×100%, where Acontrol was the absorbance of ethanol control without samples, Asample was the absorbance of sample. Ascorbic acid was used as the positive control in the […]

[2] = ABTS radical scavenging assay; details: mean ± SD (n = 3)
Method: (§1) S1.4. DPPH radical scavenging assay […]
S1.5. ABTS radical scavenging assay
The ABTS radical scavenging assay was used also to evaluate the antioxidant activity of compounds 1-11. The ABTS free radical cation (ABTS•+ )was manufactured by reacting ABTS stock solution (7 mM) with potassium persulphate

FAS = molecular target: T1, FAS (Gallus gallus, UniProt P12276); experiment: FAS inhibitory activity; assay type: biochemical, chicken; details: mean ± SD (n = 3); NA: no activity
T1 construct: isolated from chicken liver; from tissue; host or cells: chicken liver
T1 sequence (P12276 2-2512 limits assumed): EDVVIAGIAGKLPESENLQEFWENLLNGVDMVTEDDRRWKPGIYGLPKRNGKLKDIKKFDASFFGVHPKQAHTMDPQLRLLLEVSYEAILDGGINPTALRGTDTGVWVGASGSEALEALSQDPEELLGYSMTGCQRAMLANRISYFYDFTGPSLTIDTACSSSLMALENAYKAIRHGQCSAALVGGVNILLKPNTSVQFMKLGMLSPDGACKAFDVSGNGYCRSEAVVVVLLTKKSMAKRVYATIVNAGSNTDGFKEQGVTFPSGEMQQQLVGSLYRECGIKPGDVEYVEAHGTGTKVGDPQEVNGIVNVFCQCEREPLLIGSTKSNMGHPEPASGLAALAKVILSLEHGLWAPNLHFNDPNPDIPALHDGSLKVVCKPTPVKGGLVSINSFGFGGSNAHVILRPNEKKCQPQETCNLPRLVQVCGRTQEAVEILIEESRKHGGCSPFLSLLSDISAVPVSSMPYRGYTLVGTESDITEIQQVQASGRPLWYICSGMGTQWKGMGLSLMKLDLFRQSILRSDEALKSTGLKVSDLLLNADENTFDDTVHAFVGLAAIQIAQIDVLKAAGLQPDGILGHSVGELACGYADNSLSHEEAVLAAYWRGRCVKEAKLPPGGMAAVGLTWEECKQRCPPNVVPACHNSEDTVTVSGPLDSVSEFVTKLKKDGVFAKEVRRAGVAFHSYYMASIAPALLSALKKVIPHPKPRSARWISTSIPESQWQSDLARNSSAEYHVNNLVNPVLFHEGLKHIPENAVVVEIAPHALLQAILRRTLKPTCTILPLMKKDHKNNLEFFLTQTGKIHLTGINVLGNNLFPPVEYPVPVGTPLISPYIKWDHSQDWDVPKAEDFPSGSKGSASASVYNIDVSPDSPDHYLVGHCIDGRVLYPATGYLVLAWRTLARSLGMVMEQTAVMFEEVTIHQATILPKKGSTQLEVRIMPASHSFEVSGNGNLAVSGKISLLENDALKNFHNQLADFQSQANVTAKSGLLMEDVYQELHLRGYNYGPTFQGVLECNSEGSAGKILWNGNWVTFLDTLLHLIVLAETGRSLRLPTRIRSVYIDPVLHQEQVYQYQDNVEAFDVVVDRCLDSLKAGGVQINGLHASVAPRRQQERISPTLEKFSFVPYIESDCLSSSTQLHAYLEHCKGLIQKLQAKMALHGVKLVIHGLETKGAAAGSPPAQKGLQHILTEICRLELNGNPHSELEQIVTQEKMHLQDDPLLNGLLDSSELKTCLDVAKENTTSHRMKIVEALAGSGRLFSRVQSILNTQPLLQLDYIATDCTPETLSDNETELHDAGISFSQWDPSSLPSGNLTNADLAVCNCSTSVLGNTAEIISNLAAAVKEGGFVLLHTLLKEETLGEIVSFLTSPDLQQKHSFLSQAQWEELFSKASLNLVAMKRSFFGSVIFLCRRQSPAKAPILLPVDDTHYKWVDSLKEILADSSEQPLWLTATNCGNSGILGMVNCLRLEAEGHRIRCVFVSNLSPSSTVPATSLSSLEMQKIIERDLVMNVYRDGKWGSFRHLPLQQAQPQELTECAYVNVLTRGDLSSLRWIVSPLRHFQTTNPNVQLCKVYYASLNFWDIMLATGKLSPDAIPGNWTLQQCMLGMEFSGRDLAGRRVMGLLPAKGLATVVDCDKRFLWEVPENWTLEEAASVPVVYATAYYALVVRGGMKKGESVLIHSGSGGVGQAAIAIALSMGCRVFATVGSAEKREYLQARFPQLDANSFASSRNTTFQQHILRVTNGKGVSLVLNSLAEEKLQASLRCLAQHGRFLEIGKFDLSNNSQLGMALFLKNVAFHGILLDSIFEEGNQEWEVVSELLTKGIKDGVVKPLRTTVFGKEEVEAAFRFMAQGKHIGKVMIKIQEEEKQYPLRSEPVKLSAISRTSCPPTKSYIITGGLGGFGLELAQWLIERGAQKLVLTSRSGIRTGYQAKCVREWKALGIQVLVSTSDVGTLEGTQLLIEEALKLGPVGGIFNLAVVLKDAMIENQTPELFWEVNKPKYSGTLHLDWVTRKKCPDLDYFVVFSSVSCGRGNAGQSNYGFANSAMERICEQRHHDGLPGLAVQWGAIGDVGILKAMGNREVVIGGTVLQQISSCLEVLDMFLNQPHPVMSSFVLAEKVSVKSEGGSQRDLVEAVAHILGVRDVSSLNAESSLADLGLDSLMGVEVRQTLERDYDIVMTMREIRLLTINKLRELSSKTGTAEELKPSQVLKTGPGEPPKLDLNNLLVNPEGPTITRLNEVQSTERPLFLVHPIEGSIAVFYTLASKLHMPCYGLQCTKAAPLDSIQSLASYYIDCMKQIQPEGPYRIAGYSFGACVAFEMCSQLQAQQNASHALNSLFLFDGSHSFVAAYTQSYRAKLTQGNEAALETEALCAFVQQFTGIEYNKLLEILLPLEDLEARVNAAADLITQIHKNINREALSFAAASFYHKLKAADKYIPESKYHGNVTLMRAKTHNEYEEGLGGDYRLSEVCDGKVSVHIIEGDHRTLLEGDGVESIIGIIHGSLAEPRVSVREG
Method: S1. Determination of bioactivities
S1.1. Determination of FAS inhibitory activity […]
diluted with potassium phosphate buffer (0.1 M, pH 7.0). Sample solution (100 µL, 20-2000 μM, 37 °C) and FAS substrates (1.8 mL, 37 °C) were mixed in a cuvette, and then FAS solution (100 µL, 37 °C, isolated from chicken liver and kept in ice-bath before use) was added. The absorbance of reaction mixture was monitored by a UV-vis spectrophotometer at340 nm in 1 min. The inhibitory effect was calculated by the following equation: FAS inhibition (%) = (Acontrol-Asample)/Acontrol× 100%, where Acontrolrepresented the FAS activity in the control group (phosphate buffer instead of sample solution), Asamplerepresented the FAS activity in the sample groups. The FAS activity was calculated as (A0 -A1)/1 min, in which A0 was the absorbance of the reaction mixture when the FAS was added, and A1 was the absorbance of the reaction mixture after reaction 1 min. Orlistat was used as the positive control.
FAS substrates: 0.1 M potassium phosphate buffer (pH 7.0), 1 mM ethylene-diaminetetraacetic acid (EDTA), 1 mM dithiothreitol, 3 µM acetyl-coenzyme A, 10 µM […], 35 µM NADPH. […]

α-Glucosidase from yeast = experiment: α-glucosidase inhibitory activity; assay type: biochemical; details: for α-Glucosidase Inhibition at 0.1 mM: mean ± SD (n = 3), NA: no activity; for α-glucosidase inhibitory effects (in words): weaker than the positive control acarbose
Method: S1. Determination of bioactivities […]
S1.2. Determination of α-glucosidase inhibitory activity […]
diluted with phosphate buffer (0.1 M, pH 6.8). […]
and 4-nitrophenyl α-D-glucopyranoside (pNPG) solution (50 µL, 5 mM) were mixed and incubated in a 96-well microplate at 37 °C for 5 min. α-Glucosidase from yeast (50 µL, 0.2 U/mL) was added and incubated at 37 °C for another 30 min. Finally, 50 µL of Na2CO3 (1M) was added to terminate the reaction. The absorbance of mixture was measured using a microplate reader at a wavelength 405 nm. […]
following equation: α-glucosidase inhibition (%) = (Acontrol- Asample)/Acontrol×100%, where Acontrolrepresented the absorbance of phosphate buffer control without test samples, Asample represented the absorbance of test samples. Acarbose was used as the […]

α-amylase = α-amylase inhibitory activity; assay type: biochemical; details: for α-Amylase Inhibition at 0.1 mM: mean ± SD (n = 3), NA: no activity; for α-amylase inhibitory effects (in words): weaker than the positive control acarbose
Method: S1.3. Determination of α-amylase inhibitory activity
Phosphate buffer (20 mM, pH 6.9, containing 6 mM NaCl) was used as the […]
µL, 1%, w/v) were mixed and incubated in a 96-well microplate at37 °C for 10 min.
Then, α-amylase solution (50 µL, 0.2 U/mL) was added and the mixture was incubated at 37 °C for an additional 10 min. The reaction was stopped by addition of […]
microplate was immediately heated in 95 °C water bath for 10 min. When the reaction solution cooled to room temperature, allsamples were diluted by adding distilled water (50 µL), and then their absorbance was measured using a microplate reader at […]
starch solution) at 540 nm, thus the inhibitory activity was calculated as (Acontrol-Asample)/Acontrol×100%, in which Asample was the absorbance of the sample and Acontrol was the absorbance of the phosphate buffer control without test samples. Acarbose was used as the positive control.
as §1

SMILES	α-Glucosidase Inhibition at 0.1 mM (α-Glucosidase from yeast)	α-glucosidase inhibitory effects (in words) (α-Glucosidase from yeast)	IC50 [1] [µM]	IC50 [2] [µM]	IC50 (FAS) [µM]	α-Amylase Inhibition at 0.1 mM (α-amylase)	α-amylase inhibitory effects (in words) (α-amylase)
CC1OC(OC2C(C)OC(OC3C(O)C(OCCc4ccc(O)cc4)OC(CO)C3OC(=O)C=Cc3ccc(O)cc3)C(O)C2O)C(O)C(O)C1O (stereo not drawn) [Compound 8, cis-ligupurpuroside B]			> 250	4.17 ± 0.06			
C[C@@H]1O[C@@H](O[C@@H]2[C@@H](O)[C@@H](O)[C@H](O[C@@H]3[C@@H](O)[C@H](OCCc4ccc(O)cc4)O[C@H](CO)[C@H]3OC(=O)/C=C/c3ccc(O)c(O)c3)O[C@H]2C)[C@H](O)[C@H](O)[C@H]1O [Compound 9, ligurobustoside N]	25.4 ± 4.1 d %		29.2 ± 0.37	2.68 ± 0.05	5.61 ± 0.44	15.9 ± 3.1 e %	
CC1OC(OC2C(O)C(COC(=O)C=Cc3ccc(O)cc3)OC(OCCc3ccc(O)cc3)C2O)C(O)C(O)C1O (stereo not drawn) [Compound 11, (Z)-osmanthuside B6]			> 250	3.83 ± 0.05	4.55 ± 0.35	23.5 ± 1.7 c %	moderate
CC1OC(OC2C(C)OC(OC3C(O)C(OCC(O)c4ccc(O)c(O)c4)OC(CO)C3OC(=O)C=Cc3ccc(O)cc3)C(O)C2O)C(O)C(O)C1O (stereo not drawn) [Compound 2]			43.2 ± 1.06	10.6 ± 0.48		10.6 ± 2.3 f %	
C[C@@H]1O[C@@H](O[C@@H]2[C@@H](O)[C@@H](O)[C@H](O[C@@H]3[C@@H](O)[C@H](OCCc4ccc(O)cc4)O[C@H](CO)[C@H]3OC(=O)/C=C/c3ccc(O)cc3)O[C@H]2C)[C@H](O)[C@H](O)[C@H]1O [Compound 7, ligupurpuroside B]			> 250	2.75 ± 0.09		19.9 ± 1.8 d %	
CC1OC(OC2C(O)C(OCc3ccccc3)OC(CO)C2OC(=O)C=Cc2ccc(O)cc2)C(O)C(O)C1O (stereo not drawn) [Compound 4]					6.49 ± 0.27		
O=C1O[C@H]([C@@H](O)CO)C(O)=C1O [L-(+)-ascorbic acid, reference compound]			13.66 ± 0.13	10.1 ± 0.19			
CC1OC(OC2C(O)C(OCCc3ccc(O)cc3)OC(CO)C2OC(=O)C=Cc2ccc(O)cc2)C(O)C(O)C1O (stereo not drawn) [Compound 10, osmanthuside D]	19.3 ± 5.6 e %		> 250	3.34 ± 0.02		26.1 ± 1.9 c %	moderate

Further lines, with some results ahead:

α-Glucosidase Inhibition at 0.1 mM (α-Glucosidase from yeast)	α-glucosidase inhibitory effects (in words) (α-Glucosidase from yeast)	SMILES	IC50 [1] [µM]	IC50 [2] [µM]	IC50 (FAS) [µM]	α-Amylase Inhibition at 0.1 mM (α-amylase)	α-amylase inhibitory effects (in words) (α-amylase)
42.3 ± 8.7 bc %	moderate	C[C@@H]1O[C@@H](O[C@@H]2[C@@H](O)[C@@H](O)[C@H](O[C@@H]3[C@@H](O)[C@H](OCC(=O)c4ccc(O)c(O)c4)O[C@H](CO)[C@H]3OC(=O)/C=C/c3ccc(O)cc3)O[C@H]2C)[C@H](O)[C@H](O)[C@H]1O [Compound 3, 2-(3,4-dihydroxyphenyl)-2-oxoethyl 3-O-[α-L-rhamnopyranosyl-(1→4)-α-L-rhamnopyranosyl]-4-O-(trans-p-coumaroyl)-O-β-D-glucopyranoside]	23.8 ± 0.89	4.13 ± 0.06			
36.5 ± 1.5 c %		C[C@@H]1O[C@@H](O[C@@H]2[C@@H](O)[C@H](OCc3ccccc3)O[C@H](COC(=O)/C=C\c3ccc(O)cc3)[C@H]2O)[C@H](O)[C@H](O)[C@H]1O [Compound 6, benzyl 3-O-(α-L-rhamnopyranosyl)-6-O-(cis-p-coumaroyl)-O-β-D-glucopyranoside]		20.7 ± 0.22			
45.1 ± 2.5 b %	moderate	C[C@@H]1O[C@@H](O[C@@H]2[C@@H](O)[C@H](OCc3ccccc3)O[C@H](COC(=O)/C=C/c3ccc(O)cc3)[C@H]2O)[C@H](O)[C@H](O)[C@H]1O [Compound 5, benzyl 3-O-(α-L-rhamnopyranosyl)-6-O-(trans-p-coumaroyl)-O-β-D-glucopyranoside]	> 250	4.86 ± 0.06			
